The values that follow come from US11753445B2, “Therapeutic peptides” (COHBAR, INC., priority 2016, dated 2023).

A short description of data set [1]: Stability in monkey plasma (Example 16). The format is in vitro ADME. The settings on record: Monkey plasma 37° C., peptide 10 uM; for remaining at 1 h, 10 uM: 60 min, read-out: % Remaining at Each Time Point: 60 min; for remaining at 2 h, 10 uM: 120 min, read-out: % Remaining at Each Time Point: 120 min; for remaining at 3 h, 10 uM: 180 min, read-out: % Remaining at Each Time Point: 180 min.

A short description of data set [2]: Stability in mouse plasma, peptides 10 uM (Example 15). The data set is classed as in vitro ADME. Particulars: mouse plasma 37° C., peptide 10 uM; for remaining at 0.25 h, 10 uM / remaining at 0.5 h, 10 uM / remaining at 1 h, 10 uM / remaining at 2 h, 10 uM / remaining at 3 h, 10 uM: pooled mouse plasma; for remaining at 0.25 h, 10 uM: 15 min, read-out: % Remaining at Each Time Point: 15 min; for remaining at 0.5 h, 10 uM: 30 min, read-out: % Remaining at Each Time Point: 30 min; for remaining at 1 h, 10 uM: 60 min, read-out: % Remaining at Each Time Point: 60 min; for remaining at 2 h, 10 uM: 120 min, read-out: % Remaining at Each Time Point: 120 min; for remaining at 3 h, 10 uM: 180 min, read-out: % Remaining at Each Time Point: 180 min. On the procedure: Peptides (10 uM) were incubated in pooled mouse plasma at 37° C. and samples were removed and immediately analyzed for the concentration of intact peptide by LC/MS/MS over the course of 3 hours. The percent of peptide remaining in plasma at each time point was calculated relative to the initial peak area (Table 13).

Data set [3] is described as follows: Stability in mouse plasma, peptides 100 uM (Example 14). The format is in vitro ADME. Particulars: mouse plasma 37° C., peptide 100 uM; for remaining at 0.25 h, 100 uM / remaining at 0.5 h, 100 uM / remaining at 1 h, 100 uM / remaining at 2 h, 100 uM / remaining at 3 h, 100 uM: pooled mouse plasma; for remaining at 0.25 h, 100 uM: 15 min, read-out: % Remaining at Each Time Point: 15 min; for remaining at 0.5 h, 100 uM: 30 min, read-out: % Remaining at Each Time Point: 30 min; for remaining at 1 h, 100 uM: 60 min, read-out: % Remaining at Each Time Point: 60 min; for remaining at 2 h, 100 uM: 120 min, read-out: % Remaining at Each Time Point: 120 min; for remaining at 3 h, 100 uM: 180 min, read-out: % Remaining at Each Time Point: 180 min. The procedure: Peptides (100 uM) were incubated in pooled mouse plasma at 37° C. and samples were removed and immediately analyzed for the concentration of intact peptide by LC/MS/MS over the course of 3 hours. The percent of peptide remaining in plasma at each time point was calculated relative to the initial peak area (Table 12).

Data set [4] deals with Human Primary Adipocytes. Nature of the data set: Free fatty acid levels in cultured human primary adipocytes, forskolin stimulated (Example 5). The format is cell-based. The settings on record: forskolin 1 μM; for Free Fatty Acid Levels in Human Primary Adipocytes Expressed as a Percent of Forskolin Control: Percent of Control Value: test peptides 25 μM. The gist of the method:
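Differentiated human primary adipocytes (14–24 days) were exposed to peptides at 25 μM for 18–20 h and 1 h, then stimulated with 1 μM forskolin plus peptide for 3 h at 37 °C. Medium free fatty acids were measured colorimetrically (540 nm), background-corrected and expressed relative to forskolin-only cells.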

The nature of data set [5]: Stability in human plasma (Example 16). The data set is classed as in vitro ADME. The settings on record: Human plasma 37° C., peptide 10 uM; for remaining at 1 h, 10 uM / remaining at 2 h, 10 uM / remaining at 3 h, 10 uM: pooled human plasma; for remaining at 1 h, 10 uM: 60 min, read-out: % Remaining at Each Time Point: 60 min; for remaining at 2 h, 10 uM: 120 min, read-out: % Remaining at Each Time Point: 120 min; for remaining at 3 h, 10 uM: 180 min, read-out: % Remaining at Each Time Point: 180 min. On the procedure:
Peptides (10 uM) were incubated in pooled mouse or human plasma at 37° C. and samples were removed and immediately analyzed for the concentration of intact peptide by LC/MS/MS over the course of 3 hours. The percent of peptide remaining in plasma at each time point was calculated relative to the initial peak area (Table 14).

The subject of data set [6] is 3T3-L1 Adipocytes. Put plainly: Free fatty acid levels in cultured mouse 3T3-L1 adipocytes, isoproterenol stimulated (Example 17). The data set is classed as cell-based. The settings on record: insulin 100 nM; 3T3-L1 adipocytes; isoproterenol 1 nM. The gist of the method:
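Differentiated 3T3-L1 adipocytes (12-17 days) given test peptides at 25-50 μM for 18-20 h, then 3 h with peptides plus 1 nM isoproterenol at 37 °C. Medium free fatty acids read colorimetrically at 540 nm, background-corrected and expressed relative to isoproterenol-only cells.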

On to H-MRWQEMNYIFYPR-OH [compound 208], for which, in data set [1], the “% Remaining at Each Time Point: 0 min” value is 100%; the share remaining at 1 h, 10 uM worked out at 106%; the fraction remaining at 2 h, 10 uM was determined as 89%; the amount remaining at 3 h, 10 uM was determined as 68%. For the same substance, in data set [2], the “% Remaining at Each Time Point: 0 min” value stood at 100%; the amount remaining at 0.25 h, 10 uM was 77%; the fraction remaining at 0.5 h, 10 uM was 51.8%; the fraction remaining at 1 h, 10 uM is 21%. Also, in data set [2], the amount remaining at 2 h, 10 uM was 3.94% and the share remaining at 3 h, 10 uM came to 1.09%. In addition, in data set [3], the “% Remaining at Each Time Point: 0 min” value was 100%; the share remaining at 0.25 h, 100 uM is 63.3%; the share remaining at 0.5 h, 100 uM turned out to be 53.1%; the fraction remaining at 1 h, 100 uM turned out to be 48.9%. In addition, in data set [3], the fraction remaining at 2 h, 100 uM is 45.3% and the share remaining at 3 h, 100 uM worked out at 47.7%. The “Free Fatty Acid Levels in Human Primary Adipocytes Expressed as a Percent of Forskolin Control: Percent of Control Value” in data set [4] stood at 90.2%. Moreover, in data set [5], the “% Remaining at Each Time Point: 0 min” value amounted to 100%; the amount remaining at 1 h, 10 uM is 105%; the fraction remaining at 2 h, 10 uM turned out to be 86.6%; the share remaining at 3 h, 10 uM is 85.4%.
Regarding H-RWQEMQYIFYPR-OH [compound 211], in data set [2], the “% Remaining at Each Time Point: 0 min” value is listed as 100%; the amount remaining at 0.25 h, 10 uM turned out to be 85.2%; the amount remaining at 0.5 h, 10 uM was 72.8%; the amount remaining at 1 h, 10 uM worked out at 52.3%. In data set [2], the share remaining at 2 h, 10 uM was 30.3% and the share remaining at 3 h, 10 uM stood at 17.9%. Further, the “Free Fatty Acid Levels in Human Primary Adipocytes Expressed as a Percent of Forskolin Control: Percent of Control Value” in data set [4] was 90.1%.
In the case of H-MRWQEMQYIFYPRALR-OH [compound 219], in data set [3], the “% Remaining at Each Time Point: 0 min” value is on record as 100%; the fraction remaining at 0.25 h, 100 uM amounted to 44.5%; the fraction remaining at 0.5 h, 100 uM was found to be 40.9%; the share remaining at 1 h, 100 uM is 41.3%. Besides, in data set [3], the share remaining at 2 h, 100 uM stood at 19.8% and the amount remaining at 3 h, 100 uM turned out to be 12.2%. Moreover, the “Free Fatty Acid Levels in Human Primary Adipocytes Expressed as a Percent of Forskolin Control: Percent of Control Value” in data set [4] worked out at 84.0%.
In the case of H-MRWQEMGYIFYPRKLR-OH [compound 2], in data set [1], the “% Remaining at Each Time Point: 0 min” value is 100%; the fraction remaining at 1 h, 10 uM is 72.8%; the amount remaining at 2 h, 10 uM was found to be 39.8%; the share remaining at 3 h, 10 uM came to 23.4%. Further, in data set [2], the “% Remaining at Each Time Point: 0 min” value is listed as 100%; the fraction remaining at 0.25 h, 10 uM was determined as 78.3%; the share remaining at 0.5 h, 10 uM is 38.9%; the fraction remaining at 1 h, 10 uM was 9.6%. Further, in data set [2], the share remaining at 2 h, 10 uM is 0.8% and the share remaining at 3 h, 10 uM was found to be 0.4%. In data set [3], the “% Remaining at Each Time Point: 0 min” value is 100%; the fraction remaining at 0.25 h, 100 uM came out at 32%; the amount remaining at 0.5 h, 100 uM was found to be 14.8%; the share remaining at 1 h, 100 uM turned out to be 7.58%. In addition, in data set [3], the amount remaining at 2 h, 100 uM stood at 4.78% and the fraction remaining at 3 h, 100 uM is 1.21%. The “Free Fatty Acid Levels in Human Primary Adipocytes Expressed as a Percent of Forskolin Control: Percent of Control Value” in data set [4] is recorded as 111%. Moreover, in data set [5], the “% Remaining at Each Time Point: 0 min” value is on record as 100%; the fraction remaining at 1 h, 10 uM was found to be 56.3%; the amount remaining at 2 h, 10 uM was found to be 44.7%; the fraction remaining at 3 h, 10 uM was determined as 38.4%.
In the case of H-MRWQEMGYIFYPRNLR-OH [compound 213], in data set [3], the “% Remaining at Each Time Point: 0 min” value is 100%; the amount remaining at 0.25 h, 100 uM came to 41%; the share remaining at 0.5 h, 100 uM was 29.4%; the share remaining at 1 h, 100 uM was found to be 20.5%. Further, in data set [3], the share remaining at 2 h, 100 uM was found to be 10% and the amount remaining at 3 h, 100 uM is 7.45%. In addition, in data set [4], the “Free Fatty Acid Levels in Human Primary Adipocytes Expressed as a Percent of Forskolin Control: Percent of Control Value” worked out at 90.8%.
Consider H-RWQEMNYIFYPR-OH [compound 210], for which, in data set [1], the “% Remaining at Each Time Point: 0 min” value is 100%; the fraction remaining at 1 h, 10 uM was determined as 105%; the fraction remaining at 2 h, 10 uM is 87.9%; the amount remaining at 3 h, 10 uM is 77.9%. Moreover, in data set [2], the “% Remaining at Each Time Point: 0 min” value is given as 100%; the share remaining at 0.25 h, 10 uM was found to be 85.7%; the share remaining at 0.5 h, 10 uM worked out at 79.5%; the fraction remaining at 1 h, 10 uM turned out to be 61.9%. Moreover, in data set [2], the amount remaining at 2 h, 10 uM amounted to 35.4% and the amount remaining at 3 h, 10 uM stood at 23%. For the same substance, in data set [3], the “% Remaining at Each Time Point: 0 min” value was determined as 100%; the share remaining at 0.25 h, 100 uM is 56.2%; the amount remaining at 0.5 h, 100 uM turned out to be 44.8%; the fraction remaining at 1 h, 100 uM came out at 39.6%. In addition, in data set [3], the amount remaining at 2 h, 100 uM is 34.4% and the fraction remaining at 3 h, 100 uM amounted to 41.4%. Also, the “Free Fatty Acid Levels in Human Primary Adipocytes Expressed as a Percent of Forskolin Control: Percent of Control Value” in data set [4] was found to be 95.2%. Moreover, in data set [5], the “% Remaining at Each Time Point: 0 min” value worked out at 100%; the share remaining at 1 h, 10 uM stood at 106%; the amount remaining at 2 h, 10 uM was found to be 90.8%; the share remaining at 3 h, 10 uM was found to be 95.8%.
As to Insulin [reference compound], in data set [6], the “Free fatty acid levels, % of the isoproterenol control value” is on record as less than 5%. In addition, the “Free fatty acid levels, % of the forskolin control value” in data set [4] (insulin 100 nM, human primary adipocytes) was less than 8%.
Turning to H-MRWQEMGYIFYPRKLA-OH [compound 21], in data set [3], the “% Remaining at Each Time Point: 0 min” value is on record as 100%; the amount remaining at 0.25 h, 100 uM turned out to be 29.9%; the amount remaining at 0.5 h, 100 uM was 31%; the share remaining at 1 h, 100 uM came out at 21.5%. In data set [3], the amount remaining at 2 h, 100 uM turned out to be 6.41% and the fraction remaining at 3 h, 100 uM is 2.13%. Besides, the “Free Fatty Acid Levels in Human Primary Adipocytes Expressed as a Percent of Forskolin Control: Percent of Control Value” in data set [4] is recorded as 113%.
